Laboratory results as given in ChEMBL document CHEMBL4004860, “Medicinal plants used as anthelmintics: Ethnomedical, pharmacological, and phytochemical studies” (Eur J Med Chem, 2017).

Experiments:
Assay type in all cases: functional
[1] = tested on: Meloidogyne incognita; experiment: Nematocidal activity against Meloidogyne incognita second-stage juveniles up to 72 hrs
[2] = tested on: Meloidogyne incognita; experiment: Nematocidal activity against Meloidogyne incognita; details: for IC50: Meloidogyne incognita
[3] = tested on: Ascaris suum; experiment: Antiparasitic activity against L3 and L4 larval stages of Ascaris suum
[4] = tested on: Raillietina echinobothrida; experiment: Antiparasitic activity against Raillietina echinobothrida
[5] = tested on: Paramphistomum; experiment: Antiparasitic activity against Paramphistomum sp.
[6] = Antiparasitic activity against Taenia solium
[7] = tested on: Nippostrongylus brasiliensis; experiment: Nematocidal activity against Nippostrongylus brasiliensis L4 larval stage
[8] = tested on: Metaphire posthuma; experiment: Antihelmintic activity against Pheretima posthuma
[9] = tested on: Ascaridia galli; experiment: Antihelmintic activity against Ascaridia galli
[10] = tested on: Brugia malayi; experiment: Antiparasitic activity against Brugia malayi
[11] = tested on: Schistosoma mansoni; experiment: Antiparasitic activity against Schistosoma mansoni
[12] = tested on: Setaria cervi; experiment: Antiparasitic activity against Setaria cervi
[13] = tested on: Caenorhabditis elegans; experiment: Nematocidal activity against Caenorhabditis elegans
[14] = tested on: Panagrellus redivivus; experiment: Antiparasitic activity against Panagrellus redivivus
[15] = tested on: Bursaphelenchus xylophilus; experiment: Antiparasitic activity against Bursaphelenchus xylophilus
[16] = tested on: Taenia crassiceps; experiment: Cysticidal activity against Taenia crassiceps cysts after 11 days by trypan blue exclusion method; details: 264 h
[17] = tested on: Haemonchus contortus; experiment: Antihelmintic activity against egg stage of Haemonchus contortus
[18] = tested on: Haemonchus contortus; experiment: Antihelmintic activity against larval stage of Haemonchus contortus
[19] = tested on: Haemonchus contortus; experiment: Antihelmintic activity against Haemonchus contortus L3 larval stage
[20] = tested on: Trichostrongylus colubriformis; experiment: Antihelmintic activity against Trichostrongylus colubriformis
[21] = tested on: Rodentolepis nana; experiment: Antihelmintic activity against Hymenolepis nana
[22] = tested on: Haemonchus contortus; experiment: Nematocidal activity against Haemonchus contortus
[23] = tested on: Meloidogyne incognita; experiment: Nematocidal activity against Meloidogyne incognita second-stage juveniles after 3 days by light microscopic method

Structure (SMILES): CC(C)[C@@]12C=C[C@@](C)(CC1)OO2 [(Z)-ASCARIDOLE]
- IC50 [1]: 190 µM

Structure (SMILES): CC1(C)C[C@@H](O)[C@]2(C(=O)O)CC[C@]3(C)C(=CC[C@@H]4[C@@]5(C)CCC(=O)C(C)(C)[C@@H]5CC[C@]43C)[C@@H]2C1
- EC [2]: 2.12 mM

Structure (SMILES): O=C/C=C/c1ccccc1 [CINNAMALDEHYDE]
- EC [3]: 0.2 mM

Structure (SMILES): O=c1c(-c2ccc(O)cc2)coc2cc(O)cc(O)c12 [GENISTEIN]
- EC [4]: 0.74 mM
- EC [5]: 0.74 mM

Structure (SMILES): C=CCc1ccc(OC)c(OC)c1 [METHYLEUGENOL]
- IC50 [2]: 500 µM

Structure (SMILES): CC(C)[C@]12C=C[C@](C)(CC1)COOC2
- IC50 [1]: 7860 µM

Structure (SMILES): Cc1ccc(C(C)C)cc1 [P-CYMENE]
- IC50 [1]: 3240 µM

Structure (SMILES): CC(C)CCCCCCCCCCCCCC(=O)OC[C@@H](O)CO
- EC [6]: 29.5 mM

Structure (SMILES): C=C1CC[C@H]2[C@@](C)(CCC[C@]2(C)C(=O)O)[C@@H]1C/C=C(\C)[C@@H]1CCc2c(O)c(C(=O)CCC)c(O)c(CC3=C(O)C(C)(C)C(O)=C(C(C)=O)C3=O)c2O1
- IC50 [7]: 34 µM

Structure (SMILES): CCCC(=O)c1c(O)c(CC2=C(O)C(C)(C)C(O)=C(C(C)=O)C2=O)c(O)c(CC2=C(O)C(C)(C)C(O)=C(C(C)=O)C2=O)c1O
- IC50 [7]: 28 µM

Structure (SMILES): O=C1OCCN2Oc3ccccc3C12 (stereo not given)
- EC [8]: 5.23 mM
- EC [9]: 5.23 mM

Structure (SMILES): CC1(C)CC[C@]2(C(=O)O)CC[C@]3(C)C(=CC[C@@H]4[C@@]5(C)CC[C@H](O)C(C)(C)[C@@H]5CC[C@]43C)[C@@H]2C1 [OLEANOLIC_ACID]
- EC [10]: 0.06 to 0.13 mM

Structure (SMILES): C=CCc1ccc(OC)cc1 [ESTRAGOLE]
- IC50 [2]: 1250 µM

Structure (SMILES): CCN(CC)c1ccc2c(C)cc(=O)oc2c1
- EC [8]: 4.32 mM
- EC [9]: 4.32 mM

Structure (SMILES): CC1=CC2C(=O)c3cccc(O)c3C(=O)C2C(O)=C1O (stereo not given)
- EC [11]: 0.19 mM

Structure (SMILES): C[C@H]1[C@H](C)CC[C@]2(C(=O)O)CC[C@]3(C)C(=CC[C@@H]4[C@@]5(C)CC[C@H](O)C(C)(C)[C@@H]5CC[C@]43C)[C@H]12 [URSOLIC ACID]
- EC [12]: 0.004 mM
- EC [2]: 2.18 mM
- IC50 [13]: 50 µM

Structure (SMILES): C=C1C(=O)O[C@@H]2[C@H]1CC/C(C)=C/CC[C@]1(C)O[C@@H]21
- IC50 [14]: 180 µM
- IC50 [15]: 280 µM

Structure (SMILES): CCCCCCCCCCCCCCCCCCCCCC(=O)OC[C@@H](O)CO
- EC [6]: 23.24 mM

Structure (SMILES): C[C@@H]1CC[C@]2(C(=O)O)CC[C@]3(C)C(=CC[C@@H]4[C@@]5(C)CC[C@H](O)C(C)(C)[C@@H]5CC[C@]43C)[C@@H]2[C@]1(C)O [POMOLIC ACID]
- EC [2]: 2.11 mM

Structure (SMILES): O=C1C[C@@H](c2ccccc2)Oc2cc(O)cc(O)c21 [PINOCEMBRIN]
- IC50 [16]: 2 µM

Structure (SMILES): C/C=C/c1ccc(OC)cc1 [ANETHOLE]
- IC50 [17]: 4650 µM
- IC50 [18]: 14200 µM

Structure (SMILES): CCO[C@@H]1O[C@H](CO)[C@H](O)[C@H](O)[C@H]1O
- EC [10]: >2.4 mM

Structure (SMILES): CCCC(=O)C1=C(O)C(C)(C)C(O)=C(Cc2c(OC)cc(O)c(C(=O)CCC)c2O)C1=O [DESASPIDIN]
- EC [11]: 0.01 mM

Structure (SMILES): O=c1cc(-c2ccccc2)oc2cc(O)cc(O)c12 [CHRYSIN]
- IC50 [16]: 80 µM

Structure (SMILES): CC[C@H](CC[C@@H](C)[C@H]1CC[C@@H]2[C@]1(C)CC[C@H]1[C@@]2(C)CC=C2C[C@@H](O)CC[C@@]21C)C(C)C
- EC [10]: >1.2 mM

Structure (SMILES): Cc1ccc(C(C)C)c(O)c1 [THYMOL]
- IC50 [17]: 3660 µM
- IC50 [18]: 16600 µM

Structure (SMILES): C=C(C)[C@@H]1CC[C@]2(C)CC[C@]3(C)[C@H](CC[C@@H]4[C@@]5(C)CC[C@H](O)C(C)(C)[C@@H]5CC[C@]43C)[C@@H]12 [LUPEOL]
- IC50 [13]: 5 to 6 µM
- IC50 [19]: 50 µM
- IC50 [20]: 190 µM

Structure (SMILES): CC(C)=CC(=O)O[C@@H]1CC(C)(C)C[C@H]2C3=CC(=O)[C@@H]4[C@]56CC[C@](O)(OC5)C(C)(C)[C@@H]6CC[C@@]4(C)[C@]3(C)CC[C@@]12C(=O)O
- EC [2]: 1.71 mM

Structure (SMILES): COc1cc(CCC(=O)C[C@@H](O)CCc2ccc(O)c(OC)c2)ccc1O
- EC [21]: 0.001 mM

Structure (SMILES): CCCCC/C=C/C(=O)CCc1ccc(O)c(OC)c1 [SHOGAOL]
- EC [21]: 0.001 mM

Structure (SMILES): COc1cc(/C=C/C(=O)CC(=O)/C=C/c2ccc(O)c(OC)c2)ccc1O [CURCUMIN]
- EC [11]: 0.005 mM

Structure (SMILES): CCCCC[C@H](O)CC(=O)CCc1ccc(O)c(OC)c1 [GINGEROL]
- EC [21]: 0.001 mM

Structure (SMILES): C=C1CC[C@H]2[C@@](C)(CCC[C@]2(C)C(=O)O)[C@@H]1C/C=C(\C)[C@@H]1CCc2c(C)c(CC3=C(O)C(C)(C)C(O)=C(C(C)=O)C3=O)c(O)c(C(=O)CCC)c2O1
- IC50 [7]: 118 µM

Structure (SMILES): C=C(C)[C@@H]1CCC2(C)OC2C1 (single isomer, unassigned; (+))
- EC [11]: 0.16 mM

Structure (SMILES): C=C1CC[C@H]2[C@@](C)(CCC[C@]2(C)C(=O)O)[C@@H]1C/C=C(\C)[C@H]1CCc2c(O)c(C(=O)CCC)c(O)c(CC3=C(O)C(C)(C)C(O)=C(C(C)=O)C3=O)c2O1
- IC50 [7]: 22 µM

Structure (SMILES): CO[C@H]1[C@H](O)[C@@H](O)[C@@H](O)[C@H](O)[C@@H]1O [METHYLINOSITOL]
- IC50 [19]: 22700 µM

Structure (SMILES): CCCCCCCCC/C=C/C(=O)CCc1ccc(O)c(OC)c1
- EC [21]: 0.001 mM

Structure (SMILES): CCCCCC(=O)/C=C(O)/C=C/c1ccc(O)c(OC)c1
- EC [21]: 0.001 mM

Structure (SMILES): CCCCCCCCC[C@H](O)CC(=O)CCc1ccc(O)c(OC)c1
- EC [21]: 0.001 mM

Structure (SMILES): C=C(C)[C@@H]1CC[C@]2(C(=O)O)CC[C@]3(C)[C@H](CC[C@@H]4[C@@]5(C)CC[C@H](O)C(C)(C)[C@@H]5CC[C@]43C)[C@@H]12 [BETULINIC ACID]
- IC50 [13]: 150 to 220 µM
- IC50 [19]: 110 µM
- IC50 [20]: 180 µM
- EC [6]: 21.9 mM

Structure (SMILES): CCCCC[C@H](O)CC(=O)CCc1cc(O)c(O)c(OC)c1
- EC [21]: 0.001 mM

Structure (SMILES): CC[C@H](CC[C@@H](C)[C@H]1CC[C@]2(C)[C@]1(C)CC[C@@H]1[C@@]3(C)CC[C@H](O[C@@H]4O[C@H](CO)[C@@H](O)[C@H](O)[C@H]4O)CC3=CC[C@]12C)C(C)C
- EC [6]: 17.34 mM

Structure (SMILES): O=C1c2cccc(O)c2C(=O)C2C(O)=C(O)C(CO)=CC12 (stereo not given)
- EC [11]: 0.17 mM

Structure (SMILES): CCCC(=O)C1=C(O)C(C)(C)C(O)=C(Cc2c(O)c(C)c(OC)c(C(=O)CCC)c2O)C1=O
- EC [11]: 0.01 mM

Structure (SMILES): C=C1C(=O)O[C@@H]2[C@H]3C(CO)=CC(=O)C3=C(C)CC[C@@H]12 [DEOXYLACTUCIN]
- EC [22]: 4.99 mM

Structure (SMILES): COc1cc(CC/C=C/C(=O)CCc2ccc(O)c(OC)c2)ccc1O
- EC [21]: 0.001 mM

Structure (SMILES): CC[C@H](CC[C@@H](C)[C@H]1CC[C@@H]2[C@]1(C)CC[C@H]1[C@@]2(C)CC=C2C[C@@H](O[C@@H]3O[C@H](CO)[C@@H](O)[C@H](O)[C@H]3O)CC[C@@]21C)C(C)C
- EC [10]: >0.86 mM
- IC50 [13]: 140 µM

Structure (SMILES): CC1(C)OC(=O)NC(C(=O)O)c2ccc(O)cc21 (stereo not given)
- EC [8]: 3.9 mM
- EC [9]: 3.9 mM

Structure (SMILES): C=C1C(=O)O[C@@H]2[C@H]3C(CO)=CC(=O)C3=C(C)C[C@@H](O)[C@@H]12 [LACTUCIN]
- EC [22]: 2.89 mM

Structure (SMILES): CCCC(=O)C1=C(O)C(C)(C)C(O)=C(Cc2c(O)c(CC3=C(O)C(C)(C)C(O)=C(C(C)=O)C3=O)c(O)c(C(=O)CCC)c2O)C1=O
- IC50 [7]: 37 µM

Structure (SMILES): CCC/C=C/C(=O)CCc1ccc(O)c(OC)c1
- EC [21]: 0.001 mM

Structure (SMILES): CCCCC[C@H](O)C[C@H](O)CCc1ccc(O)c(OC)c1
- EC [21]: 0.001 mM

Structure (SMILES): CCCCCCCCCCCCCCCCC(=O)OC[C@@H](O)CO
- EC [6]: 29.5 mM

Structure (SMILES): O=C(O)c1ccc(O)c(O)c1 [PROTOCATECHUIC ACID]
- EC [23]: 0.78 mM

Structure (SMILES): C[C@H]1CC[C@@]2(OC1)O[C@H]1C[C@H]3[C@@H]4CC[C@H]5C[C@@H](O[C@@H]6O[C@H](CO)[C@H](O[C@@H]7O[C@H](CO)[C@@H](O)[C@H](O[C@@H]8OC[C@@H](O)[C@H](O)[C@H]8O)[C@H]7O[C@@H]7OC[C@@H](O)[C@H](O)[C@H]7O)[C@H](O)[C@H]6O[C@@H]6O[C@@H](C)[C@H](O)[C@@H](O)[C@H]6O)CC[C@]5(C)[C@H]4CC[C@]3(C)[C@H]1[C@@H]2C
- IC50 [13]: 60 µM

Structure (SMILES): CCCCC[C@H](O)C[C@@H](O)CCc1ccc(O)c(OC)c1
- EC [21]: 0.001 mM

Structure (SMILES): CC(C)=C[C@H](O)C[C@@H](C)[C@H]1CC[C@@]2(C)[C@@H]3[C@@H](O)C=C4[C@@H](CC[C@H](O)C4(C)C)[C@@]3(C=O)CC[C@]12C
- IC50 [13]: 30 µM

Structure (SMILES): CC(C)=CC(=O)O[C@@H]1C[C@@H](C)C(C)(O)[C@H]2C3=CC[C@@H]4[C@@]5(C)CC[C@H](O)C(C)(C)[C@@H]5CC[C@@]4(C)[C@]3(C)CC[C@]21C(=O)O (stereo not given in full)
- EC [2]: 1.75 mM

Structure (SMILES): C=CCc1ccc(O)c(OC)c1 [EUGENOL]
- IC50 [2]: 400 µM
- IC50 [13]: 370 µM
